What was measured:
HUVEC [1] = assay: HUVEC migration assay; format: cell-based, human; settings: 40 uM ManN alone
Protocol: HUVECs (passage 6-8) were cultured and serum-starved as described in “Western Blots”. Ten thousand cells in 150 μl of EBM-2 medium were then added to the upper chamber of 8 μm pore size cell culture inserts (Falcon) coated with 0.1% gelatin. The lower compartment was filled with 600 μl EBM-2 medium containing various agents. The plates were incubated at 37° C. to allow migration. After 4 hrs, cells were fixed with 4% PFA for 20 min and then stained with crystal violet (Sigma-Aldrich) for 20 min at RT. Migrated cells on the bottom side of the insert membrane were quantified by counting whole area of the insert at 40× magnification. The experiments were carried out in triplicate and repeated three times. BCEC migration was set up similarly, except that wells were coated with FN, cells were suspended in 1% serum media and migration time was 18-24 hrs.

HUVEC [2] = assay: HUVEC scratch assay; format: cell-based, human; settings: 40 uM ManN in combination with 50 ng/ml VEGF
Protocol: BCECs (passage 6-10) and HUVEC (passage 6-8) were used in this assay. Cells were grown until about 80% confluency in 6-well plates, washed twice with PBS and then starved in serum-free DMEM (low Glucose, Hyclone) for 5 hrs before making a “scratch” using 1 ml tip. Cell monolayers were briefly washed once with serum-free media, followed by various treatments in media containing 1% FBS. 48 hrs later, the assay was stopped by adding 2 ml 4% paraformaldehyde. 20 min later, fixed cells were stained with 1 ml Crystal Violet (Sigma). Plates were washed gently under the running tap water and air-dried before taking pictures. Images were acquired by ZEISS Discovery V8 SteREO microscopy equipped with PixeLINK Megapixel FireWire camera. Quantification of wound closure was done using AxioVision LE Rel.4.4 software. Six images were taken for each sample and six measurements (in pixel) were made on each image using AxioVision LE Rel.4.4 software.

[3] = system: bovine retinal microvascular endothelial cells (BREC); assay: BREC proliferation assay; format: cell-based
Protocol: Proliferation assays with BCECs and BRECs were performed. Log-phase growing BCECs or BRECs (passage <10) were trypsinized, re-suspended and seeded in 96-well plates (no coating) in low-glucose DMEM supplemented with 10% bovine calf serum, 2 mM glutamine, and antibiotics (growth medium), at a density of 1200-1500 cells per well in 200 μl volume. All reagents were added at the indicated final concentrations. After 3-6 days, cells were incubated with AlamarBlue for 4 hrs. Fluorescence was measured at 530 nm excitation wavelength and 590 nm emission wavelength. The experiments were repeated at least three times. To create a hypoxic condition, cells were placed in a hypoxia incubator with a mixture of gas consisting of 1% 02, 5% CO2 and 94% Nz. On each 96-well plate, untreated and VEGF-treated (10/ng/ml) wells were included to monitor plate-to-plate variations. 20% methanol or 0.05% DMSO served as negative controls. 0.05% DMSO served as negative controls when Cas was tested in these cells. Human RMVECs and human adult DMVECs were split into Gelatin-coated 96 wells (2000 cells per well) in low glucose DMEM containing 10% FBS. 1200 cells/well was set up for proliferation assay in low glucose media containing FBS. Data was collected at day 4 or 5. HUVEC (p7-10) were grown on gelatin-coated plate until it reached 70-80% confluency.

human dermal fibroblasts = assay: Human dermal fibroblast proliferation assay; format: cell-based; settings: alone or in combination with growth factors
Protocol: (§1) Proliferation assays with fibroblasts were done in low-glucose DMEM containing 1% FBS, with or without 10 ng/ml bFGF, or 100 ng/ml human EGF and the assay was ended at day 3. ARPE-19 cells were gently lifted with 0.025% trypsin and plated in RtEGM media (Clonetics) containing 2% FBS, L-glutamine, human bFGF and GA-1000. Once cells were attached to plates, serum-free RtEGM media was used to maintain the cultures. For proliferation assays, 1500 human RPE cells were plated into 96-well plates in low-glucose DMEM containing 1% FBS. A673, U87MG, Calu6 and AML12 cells were grown until confluent and were then harvested and re-suspended in appropriate assay media. For proliferation assays, cells were plated at the density of 1000-2000 cells/well in low-glucose DMEM containing 5% FBS or otherwise stated. Bovine pituitary cells (pituitary folliculostellate cells) were isolated as previously described. For proliferation assays with human epidermal keratinocytes, human DMVECs and human dermal fibroblast cells, 1000 cells/well were plated in low-glucose DMEM containing 1% FBS with or without various growth factors. The assay was ended at day 3 for bovine pituitary cells and at day 4 for all the other cell types. […] Four days later, tumor cell growth was measured by the MTS assay (Promega, Madison, WI), a colorimetric assay that measures metabolic activity of viable cells. […]

NIH3T3 fibroblasts = assay: NIH3T3 proliferation assay; format: cell-based, mouse; settings: alone or in combination with growth factors
Protocol: as §1

human keratinocytes = assay: Human keratinocyte proliferation assay; format: cell-based
Protocol: as §1

## N[C@H](C=O)[C@@H](O)[C@H](O)[C@H](O)CO [ManN, 2-Amino-2-deoxy-D-mannose]
HUVEC [1]
  HUVEC migration: stimulation of migration
HUVEC [2]
  HUVEC wound closure: stimulation of migration and wound closure
[3]
  additive effects in promoting BREC proliferation: Additive effects
Human dermal fibroblasts
  proliferation of human dermal fibroblasts: no increases in proliferation
NIH3T3 fibroblasts
  proliferation of NIH3T3 cells: no increases in proliferation
Human keratinocytes; 5 mM level of ManN
  cellular toxicity, sensitivity among cell types: least sensitive
Human keratinocytes; alone or in combination with growth factors
  proliferation of human keratinocytes: no increases in proliferation

From US20230390315A1, “COMPOSITIONS AND METHODS FOR TREATING ISCHEMIC CONDITIONS” (The Regents of the University of California, priority 2020, published 2023)
